Reference: patent US20120059021A1, “COMPOSITIONS AND METHODS FOR TREATING CANCER AND METHODS FOR PREDICTING A RESPONSE TO SUCH TREATMENTS” (UNIVERSITY OF WASHINGTON, priority 2008, published 2012)

Assays:
β-catenin [1] = experiment: Immunoblot for β-catenin phosphorylation at Ser33/Ser37/Thr41 in A375 cells; assay type: cell-based, human
A375 = experiment: qPCR of endogenous Wnt target gene AXIN2, A375; assay type: cell-based, human; conditions: A375; WNT3A CM, 2 μM PLX4720, 24 hours
From the text: (§1) RNA purification and qRT-PCR analysis. RNA was purified using the RNeasy kit following the manufacturer's protocol (Qiagen; Maryland, Md.). cDNA was synthesized using RevertAid™ M-MuLV Reverse Transcriptase (Fermentas; Ontario, CAN). Light Cycler FastStart DNA Master SYBR Green1 (Roche; Mannheim, Germany) was used for real-time PCR as previously described (53). Quantitative PCR results presented in the manuscript are averages of a minimum of three biologic replicates.

MEL624 = experiment: qPCR of endogenous Wnt target gene AXIN2, MEL624; assay type: cell-based, human; conditions: WNT3A CM, 2 μM PLX4720, 24 hours
From the text: as §1

SKMEL5 = experiment: Flow cytometry for active (cleaved) caspase-3, SKMEL5; assay type: cell-based, human; conditions: 2 uM PLX4720, 24 hours, in % (unit assumed)
Procedure: Flow cytometry for Active Caspase-3. Cells were seeded in a 6-well dish at a density to achieve 90-100% confluence at harvest. 24 hours after seeding, cells were treated with the indicated conditions for the indicated amount of time. At the time of collection, supernatants were collected and pooled with trypsinized cells. Cells were fixed with 4% paraformaldehyde and permeabilized according to vendor's protocol for Cleaved Caspase-3 (Asp175) Antibody (AlexaFluor 488 Conjugate) (catalog #9669) (Cell Signaling, Beverly Mass.). The antibody was used at a final dilution of 1:100. Flow was performed on a BD FACSCanto H, and data analysed with FlowJo 8.8.6 (Tree Star) software. Experiments were performed with biological triplicates and data are representative of at least three independent experiments.
For experiments involving siRNAs, cells were reverse transfected with 20 nM siRNA in 6-well dishes in triplicate with RNAiMax according to manufacturer's protocol. 48 hours following transfection, cells were treated with the indicated conditions for 24 hours and then harvested for analysis. Cells were harvested, stained, and analyzed as described above.

A375 cells [2] = experiment: Spheroid assay in three-dimensional collagen matrix; assay type: cell-based, human
Procedure: Spheroid Assay. A375 cells were used for the spheroid assays. Spheroids were formed and implanted in collagen as previously described (54). Spheroids were treated with indicated conditions 30 minutes after collagen polymerization. Images were obtained on a Nikon TiE inverted widefield high-resolution microscope (Nikon Melville, N.Y.).

[3] = tested on: human A375 melanoma cells; experiment: Resazurin-based assay for cell viability
AXIN1 = experiment: Immunoblot of steady-state AXIN1 levels in melanoma cells; assay type: cell-based, human
A375 cells [4] = experiment: Immunoblot of apoptosis markers (cleaved caspase-3, cleaved PARP1) in A375 cells; assay type: cell-based, human
A375 cells [5] = experiment: TUNEL assay; assay type: cell-based, human
Procedure: TUNEL. Glass coverslips were coated with poly-L-lysine in a 24-well dish, rinsed with PBS, and dried. Cells were seeded at a density to achieve 90-100% at harvest. 24 hours after seeding, cells were treated with the indicated conditions and incubated for 24 hours. TUNEL staining was performed according to vendor's protocol (cat#12 156 792 910) (Roche Indianapolis, Ind.). Briefly, media was gently aspirated and cells were fixed in 4% paraformaldehyde for 1 hour at room temperature. Cells were gently rinsed twice with PBS and permeabilized with 0.1% Triton X-100 in 0.1% sodium citrate for 2 minutes on ice. Cells were rinsed twice with PBS, and 40 uL of TUNEL reaction mixture was added directly on top of the slide and incubated for 1 hour at 37° C. in a humidified incubator. Slips were rinsed 3 times and mounted on superfrost plus glass slides (cat#48311-703 VWR West Chester, Pa.) with Prolong Gold anti-fade mounting media containing DAPI (cat# P36931 Invitrogen; Grand Island, N.Y.). Images were obtained on a Nikon TiE inverted widefield high-resolution microscope (Nikon Melville, N.Y.).

β-catenin [6] = experiment: Cytosolic and nuclear β-catenin fractionation; assay type: cell-based, human; conditions: A375, 24 hours
Procedure: Cytosolic and Nuclear β-catenin Fractionation. Cells were plated in 100 mm dishes. 24 hours following plating, cells were treated with the indicated conditions for 24 hours. Cells were gently rinsed with PBS and harvested by scraping in 500 uL of hypotonic lysis buffer (50 mM HEPES pH 8.0, 1 mM EDTA, 1 mM DTT) containing protease and phosphatase inhibitors. Cells were swelled on ice for 30 minutes and then passed through a 27 gauge needle ten times and checked for complete lysis with a microscope. Lysates were centrifuged at 10,000×g for 20 minutes and supernatant was collected as the cytosolic fraction. Pelleted membranes were washed 5 times with hypotonic lysis buffer and then solubilized with solubilization buffer (50 mM Tris pH 8.0, 150 mM NaCl, 0.1% SDS, 0.5% sodium deoxycholate, 1% Triton X-100) containing protease and phosphatase inhibitors. After a 30 minute incubation on ice, lysates were centrifuged at 16,000×g for 20 minutes. The protein concentration of the cleared supernatant was determined by BCA analysis and an equal amount of protein and volume was then incubated with pre-washed Con A sepharose beads overnight at 4 degree C. Supernatant was collected as the nuclear fraction.

[7] = A375, WNT3A and PLX4720 time course

Structure (SMILES): CCCS(=O)(=O)Nc1ccc(F)c(C(=O)c2c[nH]c3ncc(Cl)cc23)c1F [PLX4720, N-[3-[(5-Chloro-1H-pyrrolo[2,3-b]pyridin-3-yl)carbonyl]-2,4-difluorophenyl]-1-propanesulfonamide]
- phosphorylation of β-catenin at GSK3β sites (Ser33/Ser37/Thr41) (β-catenin [1]): decreased phosphorylation of β-catenin
- SYNERGISTIC WNT ACTIVATION WITH PLX4720? (A375): YES
- SYNERGISTIC WNT ACTIVATION WITH PLX4720? (MEL624): YES
- cleaved caspase-3-positive cells (SKMEL5; AXIN1/2 siRNA, L CM): 11.88 ± 0.18
- cleaved caspase-3-positive cells (SKMEL5; AXIN1/2 siRNA, W3A CM): 13.13 ± 2.7
- cleaved caspase-3-positive cells (SKMEL5; Control siRNA, L CM): 3.39 ± 0.22
- cleaved caspase-3-positive cells (SKMEL5; Control siRNA, W3A CM): 4.28 ± 1.2
- spheroid size (A375 cells [2]; A375:GFP- and A375:WNT3A-derived spheroids, 2 μM PLX4720, 72 hours): decreased spheroid size
- dead cells (EtBr staining) (A375 cells [2]; spheroids expressing WNT3A, 2 μM PLX4720, 24 hours): detection of dead cells
- number of invasive cells (A375 cells [2]; spheroids expressing WNT3A, 2 μM PLX4720, 72 hours): dramatic decrease in the number of invasive cells
- cell viability / proliferation (resazurin) [3]: further decreases cell viability
- steady-state levels of AXIN1 (AXIN1; A375, Mel624, and COLO829, WNT3A plus 2 μM PLX4720 vs WNT3A alone, 24 hours): markedly reduced
- time after which almost no detectable AXIN1 remained (AXIN1; [7]): 16 to 20 h
- time to rapid decrease in steady-state levels of AXIN1 (AXIN1; [7]): 1 to 2 h
- steady-state AXIN1 levels (AXIN1; SKMEL5, SKMEL28 and A2058, WNT3A plus 2 μM PLX4720 vs WNT3A alone, 24 hours): did not significantly decrease
- steady-state levels of AXIN1 (AXIN1; absence of rWnt3A): slightly decreased
- steady-state levels of AXIN1 (AXIN1; presence of rWnt3A): markedly diminished
- time at which cleaved caspase-3 was first detected (A375 cells [4]; [7]): 12 to 16 h
- cleavage of the caspase-3 substrate PARP1 (A375 cells [4]; A375, combined WNT3A and 2 μM PLX4720, 24 hours): synergistic cleavage of the caspase-3 substrate, PARP1
- caspase3 activation (A375 cells [4]; A375, longer treatment with PLX4720, no exogenous WNT3A): led to activation of caspase3
- TUNEL staining (A375 cells [5]; A375, agents individually): minimal TUNEL-positivity
- TUNEL staining (A375 cells [5]; WNT3A and 2 μM PLX4720, 24 hours): presence of apoptotic cell death
- steady-state levels of cytosolic or nuclear β-catenin (β-catenin [6]): did not result in increased steady-state levels of cytosolic or nuclear β-catenin
